Drawing on patent EP0645399A2, “Ribosome inactivating proteins (RIB), their method of production and medical preparation containing RIP” (priority 1993, dated 1995), this text covers IC50 for one compound.

The assay deals with T1, HIV-1 Reverse Transkriptase (Human immunodeficiency virus type 1 group M subtype B, UniProt P03366).
T1 construct: Rekombinante HIV-1 Reverse Transkriptase (66 kDa); made in house; host or cells: Escherichia coli
As to the kind of experiment: HIV-1 RT test (3H-TTP incorporation, recombinant enzyme). The class given is biochemical. The settings on record: positive control; read-out: IC₅₀ (HIV-1 RT). An excerpt:
Zur Untersuchung der biologischen Aktivität wird das aufgereinigte Protein (P 1) in einem Ribosomen-Hemmtest und einem HIV-1 RT Test eingesetzt. Im Ribosomen-Hemmtest wird die Inaktivierung von Ribosomen in einem Retikulozyten-Lysat durch das erfindungsgemäße Protein gemessen (vgl. Krawetz et al., 1983). Im HIV-1 RT Test wird die Hemmung der HIV-1 Reverse Transkriptase (HIV-1 RT) durch das erfindungsgemäße Protein P 1 bestimmt (vgl. Tan et al., 1991).
Enzym: Rekombinante HIV-1 Reverse Transkriptase (66 kDa), exprimiert in Escherichia coli (vgl. Tan et al., 1991 und darin zitierte Literatur). Die Aktivität des Enzyms in RT-Testsystemen ist von viralem Enzym nicht zu unterscheiden. Protein-Konzentration: 0,11 mg/ml; Aktivität: Einbau von 238 nM TTP/mg Protein in 10 min bei 37°C. Testansatz: 50 mM Tris-HCl, pH 8,0, 150 mM KCl, 5 mM MgCl₂, 0,5 mM EGTA, 5 mM Dithiothreitol, 0,3 mM Glutathion, 2,5 µg/ml BSA, 41 µM poly(A) (Σ₂₆₀(mM) = 7,8), 9,5 µM oligo(dT)₁₂₋₁₈ (Σ₂₆₅(mM) = 5,6), 0,05% Triton X-100, 20 µm TTP und 0,5 µCi (³H)-TTP (Endvolumen 100 µl). Probenlösung: 10 µl, in H₂O oder 25 mM Tris-HCl, pH 8,4. HIV-1 RT: 10 µl (0,11 µg in Testpuffer)
Die Polymerisationsreaktion wird durch den Zusatz der HIV-1 RT-Lösung zum Testansatz gestartet. Nach einer Inkubationszeit von 1 Stunde (37°C) wird die Reaktion durch Zugabe von 25 µl einer 0,1 M EGTA-Lösung gestoppt und die Ansätze auf Eis gekühlt. […]

Consider `COc1cc2c(ccc3c4cc(OC)c(OC)cc4c[n+](C)c23)cc1O` [Fagaronin-Chlorid], for which the IC50 came out at 13 µM.
